Here are results for 2 molecules from patent publication EP0414895A1, “OROTATE OF $g(a)-AMINO-$g(b)-PHENYL-BUTYRIC ACID” (NAUCHNO-PROIZVODSTVENNOE OBIEDINENIE "BIOLAR", priority 1989, dated 1990).

Holding throughout (type): in vivo
Test [1] relates to Mäuse. The experiment in a line: Hypoxia in barochamber (11000 m), survival. The procedure:
Nach einer der Methoden wurden die Mäuse in der Barokammer untergebracht, die für die Höhe von II000 m über dem Meeresspiegel gehoben wurde. Die Hebung wurde mit einer Geschwindigkeit von 50 m/s verwirklicht. Der atmosphärische Tiefdruck wurde mit Hilfe der elektrischen Vakuumpumpe geschaffen.
Die beanspruchte Verbindung, Natriumoxybutyrat und Pyrazetam wurden 60 min vor dem Versuch enteral eingeführt. Der Schutzeffekt wurde nach der Überlebensdauer eingeschätzt. Die Angaben sind in Tabelle I0 angeführt.

The subject of test [2] is Mäuse. The experiment in a line: Hemic hypoxia by intraperitoneal Natriumnitrit, survival. The conditions noted are these: Natriumnitrit 200 mg/kg i.p. 15 min after compound. The procedure: Die gemische Hypoxie wurde durch die intraperitoneale und subkutane Verabreichung von Natriumnitrit in einer Dosis von 200 mg/kg den Gruppen zu I0 […] I5 min nach der Einführung der Prüfverbindungen erzeugt. Die Angaben sind in der Tabelle I2 (bei der intraperitonealen Einführung von Natriumnitrit) und Tabelle I3 (bei der subkutanen Einführung von Natriumnitrit) angeführt.

For test [3], the system named is Ratten. The experiment in a line: Natriumäthaminal intoxication, sleep duration, rats. The settings on record: 500 mg/kg single + Natriumäthaminal 100 mg/kg i.p. The procedure: Ausserdem wurde die Wirkung der beanspruchten Verbindung auf die durch Natriumäthaminal erzeugte Intoxikation untersucht. Die Versuche wurden an männlichen Mäusen und Ratten in Gruppen zu 8 bis I0 Tieren angestellt. Natriumäthaminal wurde intraperitoneal in einner Dosis von I00 mg/kg I5 min nach der enteralen Verabreichung der beanspruchten Verbindung oder der Kontrollarzneimittel eingeführt. Es wurde die einmalige und chronische Einwirkung (während I2 bis I4 Tage einmal täglich) von der neuen Verbindung, γ -Amino- β - -phenylbuttersäurehydrochlorid und Pyrazetam untersucht. Es wurde die Dauer der Seitenlage - des Schlafs der Tiere bestimmt. Die Ergebnisse dieser Untersuchung sind in Tabelle 23 (für Mäuse) und 24 (für Ratten) angeführt.

The test system of test [4] is Mäuse. The experiment in a line: Hypoxia in hermetically closed vessel, survival. The conditions noted are these: closed vessel 80 cm³. The source says: Nach der zweiten Methode wurden die Mäuse in einem hermetisch verschlossenen Gefäss von 80 cm³ Inhalt untergebracht, dabei wurde die Luft nicht abgesaugt, und es wurden keine CO₂-Sorptionsmittel zugegeben. Die Prüfverbindungen wurden I Stunde vor dem Beginn des Versuchs intraperitoneal eingeführt (siehe Tabelle II).

The subject of test [5] is Mäuse. Briefly: Thresholds of emotional reactivity and aggressiveness on electric pain stimulation, mice. The source says: Es wurde auch die emotionelle Aktivität und Aggressivität der Tiere auf dem Wege der elektrischen Schmerzreizung untersucht.
In einer Kammer von 20 x 20 x 25 cm Ausmass, deren Boden - ein Metallgitter aus Stangen darstellt, wurde ein Paar Tiere untergebracht (männliche Mäuse) und es wurde der Wechselstrom durchgelassen. Die Spannung wurde dosenartig auf 5 V solange erhöht, bis der Strom das Piepsen (die Schwelle der emotionellen Reaktivität) und die Schlägerei der Tiere (die Schwelle der Aggressivität) auslöste. Jede Spannungsgrösse wurde innerhalb von 5 sec zweimal in einem Zeitabstand von 20 bis 50 Sekunden aufrechterhalten. Die Kontrolle des Benehmens der Tiere begann man I0 Minuten nach der Einführung der oben erwähnten Verbindungen. Die Angaben sind in Tabellen 3, 4 angeführt.

Test [6] has as its system Mäuse. The experiment in a line: Motor and orientation activity in photoelectric actometer. The conditions noted are these: counted 60 min from 10 min after dosing. The source says:
Zur Bestimmung der sedativen Wirksamkeit wurde die motorische und Orientierungsaktivität und die motorische Fähigkeit in Versuchen an Mäusen und Ratten untersucht.
Den Versuchstieren wurden die beanspruchte Verbindung, γ -Amino- β -phenylbuttersäurehydrochlorid und Pyrazetam eingeführt. Als Kontrolle diente die physiologische Lösung (0,9%ige NaCl-Lösung). Die Untersuchungen wurden an I0 bis I2 erwachsenen Tieren (Mäuse, Ratten) durchgeführt.
Bei der Bestimmung der motorischen und Orientierungsaktivität wurde jede Maus in einer Einzelkamner des photoelektrischen Aktometers untergebracht. Die motorische und Orientierungsaktivität wurde nach der Zahl der Impulse bestimmt, die beim Berühren der Aktometerkontakte durch das Tier entstanden. Das Zählen der Im pulse wurde I0 min nach der intraperitonealen Einführung der genannten Verbindungen begonnen und dauerte innerhalb von 60 min. Die Angaben sind in der Tabelle I angeführt.

In test [7] the test system is Mäuse. The experiment in a line: Phenamin-induced hypermotility in actometer. The settings on record: 500 mg/kg + Phenamin 5 mg/kg i.p. 10 min later. The procedure:
Eis wurde die Wirkung der beanspruchten Verbindung auf den durch Phenamin ausgelöston Effekt der Veränderung der Hypermotorik untersucht. Phenamin wurde den Mäusen intraperitoneal in Dosen von 3 und 5 mg/kg I0 Minuten nach der enteralen oder intraperitonealen Einführung der beanspruchten Verbindung und des Pyrazetams eingeführt. Die Tiere wurden in der Kammer des photoelektrischen Aktometers untergebracht. Die motorische Aktivität wurde nach der Zahl der Impulse innerhalb von 60 Minuten bestimmt. Die Angaben sind in der Tabelle 6 angeführt.

Test [8] deals with Ratten. The experiment in a line: Thresholds of emotional reactivity and aggressiveness on electric pain stimulation, rats. The settings on record: 100,0 mg/kg.
Setting [9] is: 100,0 mg/kg enteral 60 min before.

Regarding `O=C(O)CCCO` [Natriumoxybutyrat], the Überlebensdauer in test [1] (setting [9]) is 7,1±2,3 min; in test [1] (200,0 mg/kg enteral 60 min before) it was 10,1±1,9 min; in test [2] (100,0 mg/kg), 28,4±2,8 min; in test [2] (200,0 mg/kg), 43,0±2,3 min.
As for `NC(=O)CN1CCCC1=O` [Pyrazetam, I-Karbamidomethylpyrrolidon-2], the Schlafdauer in test [3] was 204,6±21 min. Besides, the Überlebensdauer in test [4] (100,0 mg/kg i.p. 1 h before) was 9,6±1,2 min; in test [4] (500,0 mg/kg i.p. 1 h before) it was 11,8±2,1 min; in test [4] (1000,0 mg/kg i.p. 1 h before) it was 13,6±1,8 min; in test [1] (setting [9]), 3,4±0,6 min; in test [1] (500,0 mg/kg enteral 60 min before), 5,5±1,8 min; in test [1] (1000,0 mg/kg enteral 60 min before), 7,2±1,4 min. For the same molecule, the figures for the Überlebensdauer in test [2] (100,0 mg/kg), in test [2] (500,0 mg/kg) and in test [2] (1000,0 mg/kg) were 26,7±2,2 min, 34,2±3,6 min and 38,8±4,2 min, respectively. Moreover, the “Spannung in V, Schwelle der Agressivität” value in test [5] (100 mg/kg) was 28,4±2,4 V; in test [5] (1000 mg/kg) it was 26,7±2,5 V. Also, the “Spannung in V, Schwelle der emotionellen Reaktivität” value in test [5] (1000 mg/kg) is 20,7±2,4 V. For the same molecule, the entries for the “Anzahl der Impulse im Aktometer” value in test [6] (100 mg/kg i.p.), in test [6] (500 mg/kg i.p.) and in test [6] (1000 mg/kg i.p.) were 342±18, 338±24 and 288±28, respectively. In addition, the “Anzahl der Impulse im Aktometer innerhalb von 60 min” value in test [7] turned out to be 1872±66. In addition, in test [8], the “Spannung in V, die Schwelle der emotionnellen Reaktivität” value is listed as 25,7±0,8 V.
